Columns and labels:
Experiment in all cases: Proliferation assay, crystal violet staining
[1] = tested on: HeLa cells; details: Homo sapiens, 96 h, read-out: Inhibition of HeLa cell proliferation, HeLa cells, 4 days incubation
[2] = tested on: NCI-H460 cells; details: Homo sapiens, NCI-H460, 96 h, read-out: Inhibition of NCI-H460 cell proliferation, NCI-H460 cells, 4 days incubation
[3] = tested on: DU145 cells; details: Homo sapiens, DU-145, 96 h, read-out: Inhibition of DU145 cell proliferation, DU145 cells, 4 days incubation
Protocol: After 24 hours, the cells of one plate (zero plate) were dyed with crystal violet (see below), whereas the medium of the other plates was replaced with fresh culture medium (200 μl) to which the test substances were added in various concentrations (0 μM, and also in the range of 0.001-10 μM; the final concentration of the solvent dimethyl sulphoxide was 0.1 or 0.5%). The cells were incubated for 4 days in the presence of the test substances. […] After washing the fixed cells three times with water, the plates were dried at room temperature. The cells were stained by adding 100 μl/measurement point of a 0.1% strength crystal violet solution (pH adjusted to pH 3 by adding acetic acid). After washing the cells three times with water, the plates were dried at room temperature. The dye was dissolved by adding 100 μl/measurement point of a 10% strength acetic acid solution. […] The percentage change in cell growth was calculated by normalizing the measured values to the absorbance values of the zero plate (=0%) and the absorbance of the untreated (0 W) cells (=100%). The IC50 values were determined by means of a four parameter fit.

| IC50 [1] | IC50 [2] | IC50 [3] | SMILES |
| --- | --- | --- | --- |
| 1050 nM | 400 nM | 837 nM | CS(=O)(=O)C1(c2cc(N3CCOCC3)nc3c(-c4ccn[nH]4)nccc23)CC1 [Example 39, 4-(1-methanesulphonycyclopropyl)-2-(morpholin-4-yl)-8-(2H-pyrazol-3-yl)-[1,7]naphthyridine] |
|  | 374 nM | 1560 nM | C[C@@H]1COCCN1c1cc(OCCCCN)c2ccnc(-c3ccn[nH]3)c2n1 [Example 57, 4-({2-[(3R)-3-methylmorpholin-4-yl]-8-(1H-pyrazol-5-yl)-1,7-naphthyridin-4-yl}oxy)butan-1-amine] |
| 164 nM | > 3000 nM |  | Clc1cc(N2CCOCC2)nc2c(-c3cc[nH]n3)nccc12 [Example 62, 4-chloro-2-morpholin-4-yl-8-(1H-pyrazol-3-yl)-[1,7]naphthyridine] |
| 2450 nM |  |  | c1cc(-c2cc(N3CCOCC3)nc3c(-c4ccn[nH]4)nccc23)c2cc[nH]c2c1 [Example 294, 4-(1H-indol-4-yl)-2-(morpholin-4-yl)-8-(1H-pyrazol-5-yl)-1,7-naphthyridine] |
| 2740 nM |  |  | NC(=O)c1ccc(-c2cc(N3CCOCC3)nc3c(-c4ccn[nH]4)nccc23)cc1 [Example 296, 4-[2-(morpholin-4-yl)-8-(1H-pyrazol-5-yl)-1,7-naphthyridin-4-yl]benzamide] |
| 2440 nM |  |  | Fc1cccc(-c2cc(N3CCOCC3)nc3c(-c4ccn[nH]4)nccc23)c1 [Example 298, 4-(3-fluorophenyl)-2-(morpholin-4-yl)-8-(1H-pyrazol-5-yl)-1,7-naphthyridine] |
| > 3000 nM |  |  | Clc1ccc(-c2cc(N3CCOCC3)nc3c(-c4ccn[nH]4)nccc23)s1 [Example 299, 4-(5-chlorothiophen-2-yl)-2-(morpholin-4-yl)-8-(1H-pyrazol-5-yl)-1,7-naphthyridine] |
| 2820 nM |  |  | FC(F)(F)c1ccccc1-c1cc(N2CCOCC2)nc2c(-c3ccn[nH]3)nccc12 [Example 301, 2-(morpholin-4-yl)-8-(1H-pyrazol-5-yl)-4-[2-(trifluoromethyl)phenyl]-1,7-naphthyridine] |
| > 3000 nM |  |  | FC(F)(F)c1cccc(-c2cc(N3CCOCC3)nc3c(-c4ccn[nH]4)nccc23)c1 [Example 303, 2-(morpholin-4-yl)-8-(1H-pyrazol-5-yl)-4-[3-(trifluoromethyl)phenyl]-1,7-naphthyridine] |
| > 3000 nM |  |  | Clc1cccc(-c2cc(N3CCOCC3)nc3c(-c4ccn[nH]4)nccc23)c1 [Example 304, 4-(3-chlorophenyl)-2-(morpholin-4-yl)-8-(1H-pyrazol-5-yl)-1,7-naphthyridine] |
| > 3000 nM |  |  | COc1cccc(-c2cc(N3CCOCC3)nc3c(-c4ccn[nH]4)nccc23)c1 [Example 306, 4-(3-methoxyphenyl)-2-(morpholin-4-yl)-8-(1H-pyrazol-5-yl)-1,7-naphthyridine] |
| > 3000 nM |  |  | c1coc(Cc2cc(N3CCOCC3)nc3c(-c4ccn[nH]4)nccc23)c1 [Example 310, 4-(furan-2-ylmethyl)-2-(morpholin-4-yl)-8-(1H-pyrazol-5-yl)-1,7-naphthyridine] |
| > 3000 nM |  |  | Cc1cccc(-c2cc(N3CCOCC3)nc3c(-c4ccn[nH]4)nccc23)c1C [Example 312, 4-(2,3-dimethylphenyl)-2-(morpholin-4-yl)-8-(1H-pyrazol-5-yl)-1,7-naphthyridine] |
| 2540 nM |  |  | OCc1cccc(-c2cc(N3CCOCC3)nc3c(-c4ccn[nH]4)nccc23)c1 [Example 313, {3-[2-(morpholin-4-yl)-8-(1H-pyrazol-5-yl)-1,7-naphthyridin-4-yl]phenyl}methanol] |
| > 3000 nM |  |  | Fc1ccc(-c2cc(N3CCOCC3)nc3c(-c4ccn[nH]4)nccc23)cc1 [Example 314, 4-(4-fluorophenyl)-2-(morpholin-4-yl)-8-(1H-pyrazol-5-yl)-1,7-naphthyridine] |
| > 3000 nM |  |  | Clc1ccc(-c2cc(N3CCOCC3)nc3c(-c4ccn[nH]4)nccc23)cc1 [Example 316, 4-(4-chlorophenyl)-2-(morpholin-4-yl)-8-(1H-pyrazol-5-yl)-1,7-naphthyridine] |
| 2980 nM |  |  | COc1cccc(-c2cc(N3CCOCC3)nc3c(-c4ccn[nH]4)nccc23)c1F [Example 317, 4-(2-fluoro-3-methoxyphenyl)-2-(morpholin-4-yl)-8-(1H-pyrazol-5-yl)-1,7-naphthyridine] |
| 2000 nM |  |  | Cc1ccccc1-c1cc(N2CCOCC2)nc2c(-c3ccn[nH]3)nccc12 [Example 318, 4-(2-methylphenyl)-2-(morpholin-4-yl)-8-(1H-pyrazol-5-yl)-1,7-naphthyridine] |
| > 3000 nM |  |  | CN(C)c1cccc(-c2cc(N3CCOCC3)nc3c(-c4ccn[nH]4)nccc23)c1 [Example 320, N,N-dimethyl-3-[2-(morpholin-4-yl)-8-(1H-pyrazol-5-yl)-1,7-naphthyridin-4-yl]aniline] |
| > 3000 nM |  |  | CN(C)c1ccccc1-c1cc(N2CCOCC2)nc2c(-c3ccn[nH]3)nccc12 [Example 321, N,N-dimethyl-2-[2-(morpholin-4-yl)-8-(1H-pyrazol-5-yl)-1,7-naphthyridin-4-yl]aniline] |

| IC50 [1] | IC50 [2] | IC50 [3] | SMILES |
| --- | --- | --- | --- |
| > 3000 nM |  |  | CS(=O)(=O)Nc1ccccc1-c1cc(N2CCOCC2)nc2c(-c3ccn[nH]3)nccc12 [Example 322, N-{2-[2-(morpholin-4-yl)-8-(1H-pyrazol-5-yl)-1,7-naphthyridin-4-yl]phenyl}methanesulfonamide] |
| 2220 nM |  |  | CS(=O)(=O)Nc1ccc(-c2cc(N3CCOCC3)nc3c(-c4ccn[nH]4)nccc23)cc1 [Example 323, N-{4-[2-(morpholin-4-yl)-8-(1H-pyrazol-5-yl)-1,7-naphthyridin-4-yl]phenyl}methanesulfonamide] |
| 2420 nM |  |  | CN(C)C(=O)c1ccc(-c2cc(N3CCOCC3)nc3c(-c4ccn[nH]4)nccc23)cc1 [Example 324, N,N-dimethyl-4-[2-(morpholin-4-yl)-8-(1H-pyrazol-5-yl)-1,7-naphthyridin-4-yl]benzamide] |
| 999 nM |  |  | C/C=C/c1cc(N2CCOCC2)nc2c(-c3ccn[nH]3)nccc12 [Example 325, 2-(morpholin-4-yl)-4-[(1E)-prop-1-en-1-yl]-8-(1H-pyrazol-5-yl)-1,7-naphthyridine] |
| 2920 nM |  |  | Oc1ccc(-c2cc(N3CCOCC3)nc3c(-c4ccn[nH]4)nccc23)cc1 [Example 326, 4-[2-(morpholin-4-yl)-8-(1H-pyrazol-5-yl)-1,7-naphthyridin-4-yl]phenol] |
| 1890 nM |  |  | Fc1ccccc1-c1cc(N2CCOCC2)nc2c(-c3ccn[nH]3)nccc12 [Example 327, 4-(2-fluorophenyl)-2-(morpholin-4-yl)-8-(1H-pyrazol-5-yl)-1,7-naphthyridine] |
| > 3000 nM |  |  | O=C(NC1CC1)c1cccc(-c2cc(N3CCOCC3)nc3c(-c4ccn[nH]4)nccc23)c1 [Example 330, N-cyclopropyl-3-[2-(morpholin-4-yl)-8-(1H-pyrazol-5-yl)-1,7-naphthyridin-4-yl]benzamide] |
| > 3000 nM |  |  | COc1ccc(-c2cc(N3CCOCC3)nc3c(-c4ccn[nH]4)nccc23)c(OC)c1 [Example 332, 4-(2,4-dimethoxyphenyl)-2-(morpholin-4-yl)-8-(1H-pyrazol-5-yl)-1,7-naphthyridine] |
| > 3000 nM |  |  | Clc1ccccc1-c1cc(N2CCOCC2)nc2c(-c3ccn[nH]3)nccc12 [Example 333, 4-(2-chlorophenyl)-2-(morpholin-4-yl)-8-(1H-pyrazol-5-yl)-1,7-naphthyridine] |
| > 3000 nM |  |  | Cc1ccc(C)c(-c2cc(N3CCOCC3)nc3c(-c4ccn[nH]4)nccc23)c1 [Example 334, 4-(2,5-dimethylphenyl)-2-(morpholin-4-yl)-8-(1H-pyrazol-5-yl)-1,7-naphthyridine] |
| 2960 nM |  |  | Nc1cccc(-c2cc(N3CCOCC3)nc3c(-c4ccn[nH]4)nccc23)c1 [Example 335, 3-[2-(morpholin-4-yl)-8-(1H-pyrazol-5-yl)-1,7-naphthyridin-4-yl]aniline] |
| 1710 nM |  |  | Oc1cccc(-c2cc(N3CCOCC3)nc3c(-c4ccn[nH]4)nccc23)c1 [Example 337, 3-[2-(morpholin-4-yl)-8-(1H-pyrazol-5-yl)-1,7-naphthyridin-4-yl]phenol] |
| > 3000 nM |  |  | COc1ccc(F)cc1-c1cc(N2CCOCC2)nc2c(-c3ccn[nH]3)nccc12 [Example 339, 4-(5-fluoro-2-methoxyphenyl)-2-(morpholin-4-yl)-8-(1H-pyrazol-5-yl)-1,7-naphthyridine] |
| 2950 nM |  |  | Fc1ccc(-c2cc(N3CCOCC3)nc3c(-c4ccn[nH]4)nccc23)c(F)c1 [Example 340, 4-(2,4-difluorophenyl)-2-(morpholin-4-yl)-8-(1H-pyrazol-5-yl)-1,7-naphthyridine] |
| 1590 nM |  |  | Fc1cccc(-c2cc(N3CCOCC3)nc3c(-c4ccn[nH]4)nccc23)c1F [Example 341, 4-(2,3-difluorophenyl)-2-(morpholin-4-yl)-8-(1H-pyrazol-5-yl)-1,7-naphthyridine] |
| 1710 nM |  |  | Nc1ccccc1-c1cc(N2CCOCC2)nc2c(-c3ccn[nH]3)nccc12 [Example 343, 2-[2-(morpholin-4-yl)-8-(1H-pyrazol-5-yl)-1,7-naphthyridin-4-yl]aniline] |
| > 3000 nM |  |  | c1ccc(-c2ccccc2-c2cc(N3CCOCC3)nc3c(-c4ccn[nH]4)nccc23)cc1 [Example 345, 4-(biphenyl-2-yl)-2-(morpholin-4-yl)-8-(1H-pyrazol-5-yl)-1,7-naphthyridine] |
| > 3000 nM |  |  | c1cc(-c2cc(N3CCOCC3)nc3c(-c4ccn[nH]4)nccc23)c2cccnc2c1 [Example 349, 2-(morpholin-4-yl)-8-(1H-pyrazol-5-yl)-4-(quinolin-5-yl)-1,7-naphthyridine] |
| > 3000 nM |  |  | c1cncc(-c2cc(N3CCOCC3)nc3c(-c4ccn[nH]4)nccc23)c1 [Example 350, 2-(morpholin-4-yl)-8-(1H-pyrazol-5-yl)-4-(pyridin-3-yl)-1,7-naphthyridine] |
| 3000 nM |  |  | COc1cc(-c2cc(N3CCOCC3)nc3c(-c4ccn[nH]4)nccc23)ccn1 [Example 351, 4-(2-methoxypyridin-4-yl)-2-(morpholin-4-yl)-8-(1H-pyrazol-5-yl)-1,7-naphthyridine] |

Reference: patent US10772893B2, “2-(morpholin-4-yl)-1,7-naphthyridines” (BAYER PHARMA AKTIENGESELLSCHAFT, priority 2014, dated 2020)
